Test results: article PMC6930570, “2-Arylidene-1-indandiones as Pleiotropic Agents with Antioxidant and Inhibitory Enzymes Activities” (Molecules, 2019)

What was measured:
[1] = Reducing activity of the stable radical DPPH; assay type: biochemical
Description: The novel derivatives were studied for their interaction with the sTable 2,2-diphenyl-1-picrylhydrazyl free radical (DPPH)at concentration 50 µM, 100 µM and 200 µM after 20 and 60 min (Table 2). In this assay the DPPH radical is reduced transferring one electron from the antioxidant. Phenolic compounds such as catechol and derivatives generate phenoxide anions with strong antioxidant capacity. Nordihydroguaretic acid (NDGA), the reference compound acts by this mechanism. Compound 10 presents the highest scavenging activity at 100 µM after 20 min correlated with the presence of the phenolic OH. Compounds 3, 4, 5, 7 presented medium activities depending from time and concentration. The presence of the heteroatom O or S seems to influence the activity e.g., derivatives 1, 2, and 3. Replacement of phenyl ring (4) by a thienyl group (1) decreases antioxidant behavior. […] On the contrary the presence of the furyl ring (3) enhances reduction. Additionally, the presence of a π-dimethyl-amino group 6 reduces the scavenging ability whereas its absence in (5), increases the activity. The presence of two conjugated double bonds (5) leads to lower activity compared to the simpler compound 4. Compounds 9 and 10 present the highest milogP values (5.94). Both include a phenolic hydrogen in their structure. […] On the contrary in compound 9 steric reasons are possible to lead to a decrease. Lipophilicity seems to influence the interaction of compound 10.
To a solution of DPPH in absolute ethanol an equal volume of the compounds with final concentrations of 50, 100 and 200 µM from a stock solution of 10 mM (in 1% DMSO and ethanol) was added. After 20 and 60 min the absorbance was recorded at 517 nm at room temperature (Table 2).

soybean lipoxygenase = molecular target: T1, soybean lipoxygenase (Glycine max, UniProt P08170); experiment: Soybean lipoxygenase inhibition in vitro; assay type: biochemical; conditions: sodium linoleate substrate, no = no action under the experimental conditions; for inhibition at 100 µM: read-out: LOX (% Inhibition 100 µM)
T1 construct: purchased Sigma Chemical, Co. (St. Louis)
T1 sequence (P08170 1-839): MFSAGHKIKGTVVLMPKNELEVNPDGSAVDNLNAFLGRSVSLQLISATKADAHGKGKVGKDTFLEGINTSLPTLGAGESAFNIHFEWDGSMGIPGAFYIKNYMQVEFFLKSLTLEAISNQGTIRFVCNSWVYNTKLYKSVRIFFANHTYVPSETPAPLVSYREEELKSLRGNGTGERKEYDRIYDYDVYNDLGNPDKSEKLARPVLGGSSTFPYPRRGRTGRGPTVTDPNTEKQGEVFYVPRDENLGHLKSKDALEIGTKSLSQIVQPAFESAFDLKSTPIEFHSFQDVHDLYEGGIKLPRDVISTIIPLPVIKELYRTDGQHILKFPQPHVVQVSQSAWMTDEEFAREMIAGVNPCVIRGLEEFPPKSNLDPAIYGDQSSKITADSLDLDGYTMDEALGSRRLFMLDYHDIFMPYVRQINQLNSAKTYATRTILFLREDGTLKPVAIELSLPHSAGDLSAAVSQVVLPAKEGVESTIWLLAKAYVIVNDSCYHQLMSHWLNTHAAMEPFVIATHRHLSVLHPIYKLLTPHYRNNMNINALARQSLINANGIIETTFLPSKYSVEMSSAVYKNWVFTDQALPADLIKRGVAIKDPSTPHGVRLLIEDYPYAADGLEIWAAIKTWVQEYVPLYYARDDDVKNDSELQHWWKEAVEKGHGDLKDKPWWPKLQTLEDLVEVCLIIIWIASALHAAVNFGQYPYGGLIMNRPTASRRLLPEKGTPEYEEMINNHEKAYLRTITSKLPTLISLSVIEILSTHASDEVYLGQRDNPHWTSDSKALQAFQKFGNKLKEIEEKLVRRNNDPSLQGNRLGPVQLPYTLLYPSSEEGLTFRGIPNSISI
Description: Thus, we used soybean LOX in our in vitro experiments.
In vitro study was performed as reported previously by our group. Sodium linoleate (0.1 mM) and 0.2 mL of enzyme solution (1/9 × 104 w/v in saline) were used for the incubation of the tested derivatives.

[2] = ABTS+. decolorization assay; assay type: biochemical; conditions: 1 min, no = no action under the experimental conditions
Excerpt: The radical cation ABTS^+• is directly generated through potassium persulfate by oxidation with no participation of an intermediary radical and then the reduction is followed by adding electron-donating antioxidants. In this assay the radical is generated before adding the antioxidant (decolorization assay). […] It seems that lipophilicity influences the activity, since both are presenting high lipophilicity values. […] The radical cation ABTS^+• was generated from an ABTS stock solution in water (7 mM) which was mixed with potassium persulfate (2.45 mM) and left in the dark at room temperature for 12–16 h before use. The results are recorded after 1min of the mixing solutions at 734 nm and compared to the appropriate standard inhibitor Trolox (Table 3).

[3] = test system: carrageenin-induced rat paw edema; experiment: Inhibition of the carrageenin-induced rat paw edema (CPE); assay type: in vivo, Fisher 344 rats; conditions: 0.01 mmol/kg body weight, intraperitoneally, 3.5 h after carrageenin; for inhibition in vivo at 10 µmol/kg: Rattus norvegicus, ip, read-out: CPE % (reduction of the rat paw edema)
Excerpt: Carrageenin-induced rat paw edema (CPE) model was used to study the in vivo anti-inflammatory activity of the tested derivatives and the results are presented in Table 3. […] Compounds 2, 7, 8, 10, and 12 presented small differences in their biological activity. The presence of the thienyl group as well as of the furyl leads to higher anti-inflammatory activity (1 and 3) while substitution with a phenyl group leads to two-fold decrease of the activity (28%).
Edema was induced in the right hind paw of Fisher 344 rats (150–200 g) by the intradermal injection of 0.1 mL 2% carrageenin in water. Both sexes were used while females pregnant were excluded. Each group was composed of 6–15 animals. The animals, which have been bred in our laboratory, were housed under standard conditions and received a diet of commercial food pellets and water ad libitum during the maintenance but they were entirely fasted during the experiment period. Our studies were in accordance with recognised guidelines on animal experimentation. (guidelines for the care and use of laboratory animals published by the Greek Government 160/1991, based on EU regulations 86/609). Rats were kept in the Centre of the School of Veterinary Medicine (EL54 BIO42), Aristotle University of Thessaloniki, which is registered by the official state veterinary authorities (presidential degree 56/2013, in harmonization with the European Directive 2010/63/EEC). The experimental protocols were approved by the Animal Ethics Committee of the Prefecture of Central Macedonia (no. 270079/2500). The tested compounds 0.01 mmol/kg body weight were suspended in water, with a few drops of Tween 80 and ground in a mortar before use and were given intraperitoneally simultaneously with the carrageenin injection. The rats were euthanized 3.5 h after carrageenin injection. The difference between the weight of the injected and uninjected paws was calculated for each animal. The change in paw weight was compared with that in control animals (treated with water) and expressed as a percent inhibition of the edema CPE % values […] [58, 59]. Indomethacin in 0.01 mmol/kg (47%). Values CPE % are the mean from two different experiments with a standard error of the mean less than 10% (Table 3).

Row | SMILES | RA% 50 µM 20 min [1] [%] | RA% 50 µM 60 min [1] [%] | RA% 100 µM 20 min [1] [%] | RA% 100 µM 60 min [1] [%] | RA% 200 µM 20 min [1] [%] | RA% 200 µM 60 min [1] [%] | inhibition at 100 µM (soybean lipoxygenase) [%] | ABTS+. % 100 µM (decolorization activity) [2] | melting point [°C] | inhibition in vivo at 10 µmol/kg [3] [%] | LOX (% Inhibition 100 µM) (soybean lipoxygenase) | CPE % (reduction of the rat paw edema) [3] [%]
1 | CN(C)c1ccc(/C=C\C=C2C(=O)c3ccccc3C2=O)cc1 [Compound 6, (Z)-2-(3-(4-(dimethylamino)phenyl)allylidene)-1H-indene-1,3(2H)-dione] | 6 | 6 | 22 | 23 | 15 | 18 | 17.7 | 22% | 85 to 87 | – | – | –
2 | O=C1C(=Cc2c[nH]c3ccccc23)C(=O)c2ccccc21 [Compound 12, (Z)-2-((1H-indol-3-yl)methylene)-1H-indene-1,3(2H)-dione] | 3 | 3 | 17 | 17 | 4 | 6 | 58.9 | no | 283 to 285 | 42 | – | –
3 | CC(C)(C)c1cc(C=C2C(=O)c3ccccc3C2=O)cc(C(C)(C)C)c1O [Compound 10, (Z)-2-(3,5-di-tert-butyl-4-hydroxybenzylidene)-1H-indene-1,3(2H)-dione] | 13 | 17 | 100 | 85 | 71 | 71 | – | 39% | 98 to 100 | 42 | no | –
4 | Cc1ccsc1C=C1C(=O)c2ccccc2C1=O [Compound 2, (Z)-2-((3-methylthiophen-2-yl)methylene)-1H-indene-1,3(2H)-dione] | 2 | 2 | 16 | 16 | 4 | 7 | 45 | 2% | 171 to 172 | 45 | – | –
5 | O=C1C(=Cc2ccccc2)C(=O)c2ccccc21 [Compound 4, 2-benzylidene-1H-indene-1,3(2H)-dione] | 5 | 10 | 26 | 32 | 23 | 32 | 35 | 19% | – | 28 | – | –
6 | O=C1C(=Cc2ccc(OCc3ccc(Br)cc3)cc2)C(=O)c2ccccc21 [Compound 8, (Z)-2-(4-((4-bromobenzyl)oxy)benzylidene)-1H-indene-1,3(2H)-dione] | 4 | 5 | 7 | 7 | 0 | 0 | 3.6 | 16% | 222 to 224 | 46 | – | 46
7 | Cc1ccc(C=C2C(=O)c3ccccc3C2=O)o1 [Compound 3, (Z)-2-((5-methylfuran-2-yl)methylene)-1H-indene-1,3(2H)-dione] | 20 | 23 | 37 | 40 | 61 | 75 | 35.7 | 20% | – | 50 | – | –
8 | CC(C)(C)c1cc(C=C2C(=O)c3ccccc3C2=O)c(O)c(C(C)(C)C)c1 [Compound 9, (Z)-2-(3,5-di-tert-butyl-2-hydroxybenzylidene)-1H-indene-1,3(2H)-dione] | 4 | 3 | 3 | 1 | 6 | 6 | – | no | 52 to 54 | – | no | –
